Laboratory results published in patent US11633379B2, “Methods of inhibiting PCSK9” (TRUSTEES OF DARTMOUTH COLLEGE, priority 2017, dated 2023).
Where “and” joins values, the source holds several entries; their conditions need not be identical. Equal entries are not always repeated.

Tests used:
PCSK9 [1] = experiment: PCSK9 AlphaLisa Huh7 SP and CRC; type: cell-based
PCSK9 [2] = experiment: Basal_PCSK9 HepG2, primary SP and CRC (secreted PCSK9, ELISA); type: cell-based, human; settings: for Primary SP Basal_PCSK9 HepG2 SP % Inhib @ 5 μM / Primary SP Basal_PCSK9 HepG2 SP % Inhib @ 50 μM / Primary SP Basal_PCSK9 HepG2 SP % Inhib @ 2 μM: HepG2, single point; for activity rating in words (PCSK9 inhibition, Table 2): summary of Table 2 data; for Primary SP Basal_PCSK9 HepG2 SP % Inhib @ 5 μM / accumulation of PCSK9 in culture media: 5 μM; for accumulation of PCSK9 in culture media: HepG2 cells, FIGS. 2A-2B; for IC50: HepG2, concentration response curve
Protocol: To study the effect of the compounds on PCSK9 secretion we used 1×10^6 HepG2 cells in 6-well culture plates, followed by incubation with media only, media+0.1% DMSO or Media+5 uM of 31/33/34/35 in 0.1% DMSO and collection of 50 ul of media at 8, 16, 24 and 40 hours or incubation with increasing concentration (0.2-50 μM) of 34 in 0.1% DMSO for 24 hours and collection of 50 ul of media. The collected media was analyzed for PCSK9 levels using commercially available ELISA kit (MBL-international, catalog # CY-8079) following the manufacturer instruction.
(§1) The below data (Table 2) was generated using the assays as discussed in Examples 1-2. Blanks mean no testing was performed. […] For the SP assays, the higher the number, the higher the inhibition, e.g., the better the activity of the compound. Compounds with a determined IC50 are particularly active, the IC50 values were determined via dose response curve (under the heading CRC which stands for concentration response curve aka dose response curve).

PCSK9 [3] = experiment: Secondary Basal_PCSK9 ELISA RPH; type: cell-based
Protocol: as §1

SMILES	Primary SP PCSK9 AlphaLisa Huh7 SP % Inhib @ 10 μM (PCSK9 [1]; Huh7)	Primary SP Basal_PCSK9 HepG2 SP % Inhib @ 5 μM (PCSK9 [2])	other results
Cn1c2c(c3ccccc31)C1(CCCCC1)C1C=CC2C1 (centres unmarked) [Compound 8]	−44.02%		
CC1C=CC(C)C(c2ccccc2)c2c1n(C)c1ccccc21 (centres unmarked) [Compound 12]	−261.1%		
Cn1c2c(c3ccccc31)C(c1ccco1)C1C=CC2C1 (centres unmarked) [Compound 4]		11.69%	
CC1=CCc2c(c3ccccc3n2C)C(c2ccccc2)C1 (centres unmarked) [Compound 11]		38.95%	
CN1c2ccccc2[C@]2(C)Cc3cc(Cl)ccc3N[C@H]12 [Compound 60]	9.09%		
CCC[C@@]12Cc3ccccc3N[C@@H]1N(C)c1ccccc12 [Compound 56]	32.56% and 23.45%		
COC(=O)c1ccc2[nH]c3c(c2c1)C(C)(C)C1C=CC3C1 (centres unmarked) [Compound 15]	−117.8%		
COC(=O)[C@@H]1CC[C@H](O)[C@@]2(C)c3ccccc3N(C)[C@@H]12 [Compound 49]			Primary SP Basal_PCSK9 HepG2 SP % Inhib @ 50 μM (PCSK9 [2]): −13.7% and −22.9%
c1ccc(C2CC3(CCCCC3)c3c2[nH]c2ccccc32)cc1 (centres unmarked) [Compound 32]		8.8%	Primary SP Basal_PCSK9 HepG2 SP % Inhib @ 50 μM (PCSK9 [2]): 11.9%; activity rating in words (PCSK9 inhibition, Table 2) (PCSK9 [2]): weakly active
CC1(C)c2c([nH]c3ccc(Cl)cc23)C2C=CC1C2 (centres unmarked) [Compound 18]		21.64%	
CC1(C)C(=O)C[C@@]2(C)c3ccccc3N(Cc3ccccc3)[C@@]12C [Compound 53]			Primary SP Basal_PCSK9 HepG2 SP % Inhib @ 50 μM (PCSK9 [2]): −20.1% and −22.3%
CC1(C)c2c([nH]c3ccc(C(F)(F)F)cc23)C2C=CC1C2 (centres unmarked) [Compound 25]	−334%		
Cc1cccc2c1N[C@@H]1N(C)c3ccccc3[C@]1(C)C2 [Compound 58]	−2.718%		
COc1ccc(C2c3c(n(C)c4ccccc34)C3C=CC2C3)cc1 (centres unmarked) [Compound 2]		39.51%	
COc1ccc(C2CC3(CCCCC3)c3c2n(C)c2ccccc32)cc1 (centres unmarked) [Compound 20]		15.69%	
CC1=C(C)CC2(CCCCC2)c2c(n(C)c3ccccc23)C1 [Compound 10]		11.61%	
CN1c2ccccc2[C@]2(Cc3ccccc3)Cc3ccccc3N[C@H]12 [Compound 57]	17.71%		
CN1c2ccc(Br)cc2[C@]2(C)Cc3ccccc3N[C@H]12 [Compound 62]	10.55% and 20.08%		
Cn1c2c(c3ccccc31)C(c1ccccc1)C1C=CC2C1 (centres unmarked) [Compound 1]			Primary SP Basal_PCSK9 HepG2 SP % Inhib @ 2 μM (PCSK9 [2]): 0%
CC1(C)c2c([nH]c3ccc(Br)cc23)C2C=CC1C2 (centres unmarked) [Compound 17]		37.33%	
CC1(C)c2c(n(Cc3ccccc3)c3ccccc23)C2C=CC1C2 (centres unmarked) [Compound 13]		18.09%	

SMILES	Primary SP PCSK9 AlphaLisa Huh7 SP % Inhib @ 10 μM (PCSK9 [1]; Huh7)	Primary SP Basal_PCSK9 HepG2 SP % Inhib @ 5 μM (PCSK9 [2])	other results
Cc1ccc(C2CC3(CCCCC3)c3c2n(C)c2ccccc32)cc1 (centres unmarked) [Compound 21]		12.18%	
Cn1c2c(c3ccccc31)C1(CCCC1)C1C=CC2C1 (centres unmarked) [Compound 7]	−34.71%		
Cc1ccc(C2CC3(CCCCC3)c3c2[nH]c2ccccc32)cc1 (centres unmarked) [Compound 33]		18.9%	Secondary Basal_PCSK9 ELISA RPH % Inhib @ 20 μM (PCSK9 [3]; 20 μM): −4.143% and 2.541% and 3.284% and −5.595%; Secondary Basal_PCSK9 ELISA RPH % Inhib @ 100 μM (PCSK9 [3]): 25.95% and 29.77%; accumulation of PCSK9 in culture media (PCSK9 [2]): significantly reduced accumulation of PCSK9 in culture media in a time-dependent and concentration-dependent manner; Primary SP Basal_PCSK9 HepG2 SP % Inhib @ 50 μM (PCSK9 [2]): 53.4%; IC50 (PCSK9 [2]): 2.12 µM; activity rating in words (PCSK9 inhibition, Table 2) (PCSK9 [2]): particularly strongly active
CC1(C)c2c([nH]c3ccc(F)cc23)C2C=CC1C2 (centres unmarked) [Compound 23]	−35.06%		
CC1(C)c2c([nH]c3ccc(I)cc23)C2C=CC1C2 (centres unmarked) [Compound 16]		9.989%	
CC1(C)c2c([nH]c3ccccc23)C2C=CC1C2 (centres unmarked) [Compound 14]			Primary SP Basal_PCSK9 HepG2 SP % Inhib @ 2 μM (PCSK9 [2]): 47.9%; IC50 (PCSK9 [2]): > 50 µM
Cc1ccc(C2CC(C)(C)c3c2[nH]c2ccc(C)cc32)cc1 (centres unmarked) [Compound 36]		24.5%	Primary SP Basal_PCSK9 HepG2 SP % Inhib @ 50 μM (PCSK9 [2]): 96.5%; IC50 (PCSK9 [2]): 18.6 µM
CC1(C)c2c([nH]c3ccc(O)cc23)C2C=CC1C2 (centres unmarked) [Compound 24]		4.997%	
Cn1c2c(c3ccccc31)C1(CCCCC1)CC2c1ccc2ccccc2c1 (centres unmarked) [Compound 22]		77.2%	IC50 (PCSK9 [1]; Huh7, concentration response curve, read-out: Primary CRC PCSK9 AlphaLisa Huh7 CRC Rel IC50): > 40 µM
Cn1c2c(c3ccccc31)C(c1ccc(C(F)(F)F)cc1)C1C=CC2C1 (centres unmarked) [Compound 3]		−0.4577%	
CN1c2ccccc2[C@]2(C)Cc3ccccc3N[C@H]12 [Compound 54]	−11.97%		
Cn1c2c(c3ccccc31)C(c1cccs1)C1C=CC2C1 (centres unmarked) [Compound 5]		30.55%	
Cc1ccc(C2CC(C)(C)c3c2[nH]c2ccccc32)cc1 (centres unmarked) [Compound 31]		26.2%	Secondary Basal_PCSK9 ELISA RPH % Inhib @ 100 μM (PCSK9 [3]): 19.03% and 22.14%; accumulation of PCSK9 in culture media (PCSK9 [2]): significantly reduced accumulation of PCSK9 in culture media in a time-dependent and concentration-dependent manner; Primary SP Basal_PCSK9 HepG2 SP % Inhib @ 50 μM (PCSK9 [2]): 87.5%; IC50 (PCSK9 [2]): 4.12 µM; activity rating in words (PCSK9 inhibition, Table 2) (PCSK9 [2]): particularly strongly active
Cc1ccc2c(c1)C[C@@]1(C)c3ccccc3N(C)[C@H]1N2 [Compound 59]			Primary SP PCSK9 AlphaLisa Huh7 SP % Inhib @ 10.1 μM (PCSK9 [1]; 10.1 μM, Huh7): −5.307%
C=CCc1ccc2c(c1)C[C@@]1(C)c3ccccc3N(C)[C@H]1N2 [Compound 61]	−16.91%		
Cc1ccc(C2CC3(CCCCC3)c3c2[nH]c2ccc(C)cc32)cc1 (centres unmarked) [Compound 35]		26.4%	accumulation of PCSK9 in culture media (PCSK9 [2]): significantly reduced accumulation of PCSK9 in culture media in a time-dependent and concentration-dependent manner; Primary SP Basal_PCSK9 HepG2 SP % Inhib @ 50 μM (PCSK9 [2]): 90%; IC50 (PCSK9 [2]): 3.14 µM; activity rating in words (PCSK9 inhibition, Table 2) (PCSK9 [2]): particularly strongly active
C[C@@]12Cc3ccccc3N[C@@H]1N(Cc1ccccc1)c1ccccc12 [Compound 55]	−22.6%		
Cn1c2c(c3ccccc31)C1(CCCCC1)C1C=CC2C1 (centres unmarked) [Compound 9]		21.92%	
Cn1c2c(c3ccccc31)C1(CCCCC1)CC2c1ccccc1 (centres unmarked) [Compound 19]		7.268%	
CCC1c2c(n(C)c3ccccc23)C2C=CC1C2 (centres unmarked) [Compound 6]		−5.193%	
